In patent US20260152779A1, “GENETICALLY ENGINEERED FUMONISIN SENSITIVE YEAST” (FFOQSI GMBH, priority 2022, published 2026):
Read-outs that look alike come from different tables or passages of the source.

Legend:
YPH500 = test: paper disk inhibition zone assay, wild-type strain YPH500; type: cell-based, Saccharomyces cerevisiae
[1] = system: brine shrimp (Artemia salina); settings: cited from earlier work
wild type yeast = test: growth inhibition of wild type yeast by FB1; type: cell-based, Saccharomyces cerevisiae; settings: at a concentration of 1000 μM FB1 or more
Source text: Growth rates and growth inhibition can be determined by any method well known in the art, such as, but not limited to, determining cell number, using e.g. a hemocytometer, determining cell viability, e.g. using methylene blue staining, or determining relative growth calculated as the resultant optical density ratio of toxin treated cultures to untreated controls. Also yeast dry weight can be determined or conductance change can be measured during yeast growth, employing direct and indirect methods.

Arabidopsis = settings: bioassay e.g. 10 days; cited from earlier work
human HepG2 cells = settings: read-out: acute cytotoxicity (IC50); cited from earlier work
primary rat hepatocytes = settings: read-out: acute cytotoxicity (IC50 values); cited from earlier work
YTKT33 [2] = test: spotting on SC-URA agar plates with FB1, strain YTKT33; type: cell-based, Saccharomyces cerevisiae; settings: SC-URA agar plates, 87,88% pure FB1, empty pYes2-PTEF1 vector, 30° C., 5 days
Description: In a further setting, sensitive yeast strains YRU74, YRU94ML, YTKT33 and the original yeast strain YPH500 were transformed with the empty pYes2-PTEF1 vector containing the marker URA3, so that they could grow on Synthetic Complete media lacking uracil (SC-URA). They were grown in SC-URA overnight and rediluted to an OD600 of 0.1 in the morning. After reaching exponential growth (OD600>0.3), they were diluted again for spottings on plates containing 87,88% pure FB1. 3 μl of each strain/dilution was pipetted onto the plates and left to grow at 30° C. for 5 days. The photos of these plates are shown above. […] Three spots were spotted on each plate for every strain.

YTKT33 [3] = test: spotting on YPD agar plates with crude FB1, strain YTKT33; type: cell-based, Saccharomyces cerevisiae; settings: crude fumonisin stock (FB1+FB2+FB3) containing >70% FB1, 30° C., 5 days
Description: (§1) In a further setting, the sensitive yeast strains YRU74, YRU94ML and YTKT33 were grown in YPD (1% yeast extract, 2% peptone, 2% glucose) overnight alongside the original resistant YPH500 strain. The next day, they were rediluted to an OD600 of 0.1. After reaching exponential growth (>0.3) they were diluted to an OD of 0.1 and diluted further (1:10 and 1:100) for spottings on YPD agar plates alongside containing different concentrations of the crude fumonisin stock (FB1+FB2+FB3, measured via LC-MS/MS) containing >70% FB1. The concentrations used for the prepared FB1 plates were calculated based on the measured FB1. 3 μl of each strain/dilution was pipetted onto the plates and left to grow at 30° C. for 5 days. The photos of these plates are shown above. […] Three different dilutions of each strain were spotted on every plate. […] Both YRU94ML and YTKT33 growth is inhibited at a concentration of 250 μM FB1.

YRU94ML = test: spotting on YPD agar plates with crude FB1, strain YRU94ML; type: cell-based, Saccharomyces cerevisiae; settings: crude fumonisin stock (FB1+FB2+FB3) containing >70% FB1, 30° C., 5 days
Description: as §1

YTKT33 [4] = test: FB1 resistance conferred by candidate genes expressed in YTKT33 on SC-URA FB1 plates; type: cell-based, Saccharomyces cerevisiae; settings: SC-URA plates with different FB1 concentrations, spottings OD600 0.1, 0.01, 0.001
Source text: The plasmids described by Janevska et al., 2020, were kindly provided by Dr. Vito Valiante. Plasmid pYes2-PTEF1 (=empty vector, TEF1 promoter) was used to express different genes assumed to confer resistance against FB1. Candidate genes were coned behind the TEF1 promoter into that plasmid and subsequently transformed into the sensitive yeast strain YTKT33 for testing.
YOR1 (with endogenous promoter on an episomal (multicopy 2 μm) plasmid) and FvCER1 (positive control, resistance conferring ceramide synthase from Fusarium verticillioides) were used as controls. Sphingopyxis sp.

Molecule: fumonisin
- development of an inhibition zone (YPH500): did not result in the development of an inhibition zone

Molecule: Fumonisin B1 [FB1]
- IC50 ([1]; 24 h incubation): ~10 µM
- IC50 ([1]; 48 h incubation): 1.7 µM
- growth inhibition of wild type yeast (wild type yeast): does not show significant growth inhibition
- FB1 concentration at which seed germination and root development is already strongly inhibited (Arabidopsis): 1 µM
- IC50 (human HepG2 cells): 399 µM
- IC50 (primary rat hepatocytes): 2000 µM
- FB1 concentration at which growth is inhibited (YTKT33 [2]): ~100 µM
- FB1 concentration at which growth is inhibited (YTKT33 [3]): 250 µM
- FB1 concentration at which growth is inhibited (YRU94ML): 250 µM

B1: YOR1: yeast ABC transporter gene with endogenous promoter on an episomal multicopy plasmid, used as control (protein, UniProt P53049 1-1477, looked up)
Oligomycin resistance …: MTITVGDAVSETELENKSQNVVLSPKASASSDISTDVDKDTSSSWDDKSLLPTGEYIVDRNKPQTYLNSDDIEKVTESDIFPQKRLFSFLHSKKIPEVPQTDDERKIYPLFHTNIISNMFFWWVLPILRVGYKRTIQPNDLFKMDPRMSIETLYDDFEKNMIYYFEKTRKKYRKRHPEATEEEVMENAKLPKHTVLRALLFTFKKQYFMSIVFAILANCTSGFNPMITKRLIEFVEEKAIFHSMHVNKGIGYAIGACLMMFVNGLTFNHFFHTSQLTGVQAKSILTKAAMKKMFNASNYARHCFPNGKVTSFVTTDLARIEFALSFQPFLAGFPAILAICIVLLIVNLGPIALVGIGIFFGGFFISLFAFKLILGFRIAANIFTDARVTMMREVLNNIKMIKYYTWEDAYEKNIQDIRTKEISKVRKMQLSRNFLIAMAMSLPSIASLVTFLAMYKVNKGGRQPGNIFASLSLFQVLSLQMFFLPIAIGTGIDMIIGLGRLQSLLEAPEDDPNQMIEMKPSPGFDPKLALKMTHCSFEWEDYELNDAIEEAKGEAKDEGKKNKKKRKDTWGKPSASTNKAKRLDNMLKDRDGPEDLEKTSFRGFKDLNFDIKKGEFIMITGPIGTGKSSLLNAMAGSMRKTDGKVEVNGDLLMCGYPWIQNASVRDNIIFGSPFNKEKYDEVVRVCSLKADLDILPAGDMTEIGERGITLSGGQKARINLARSVYKKKDIYLFDDVLSAVDSRVGKHIMDECLTGMLANKTRILATHQLSLIERASRVIVLGTDGQVDIGTVDELKARNQTLINLLQFSSQNSEKEDEEQEAVVAGELGQLKYESEVKELTELKKKATEMSQTANSGKIVADGHTSSKEERAVNSISLKIYREYIKAAVGKWGFIALPLYAILVVGTTFCSLFSSVWLSYWTENKFKNRPPSFYMGLYSFFVFAAFIFMNGQFTILCAMGIMASKWLNLRAVKRILHTPMSYIDTTPLGRILNRFTKDTDSLDNELTESLRLMTSQFANIVGVCVMCIVYLPWFAIAIPFLLVIFVLIADHYQSSGREIKRLEAVQRSFVYNNLNEVLGGMDTIKAYRSQERFLAKSDFLINKMNEAGYLVVVLQRWVGIFLDMVAIAFALIITLLCVTRAFPISAASVGVLLTYVLQLPGLLNTILRAMTQTENDMNSAERLVTYATELPLEASYRKPEMTPPESWPSMGEIIFENVDFAYRPGLPIVLKNLNLNIKSGEKIGICGRTGAGKSTIMSALYRLNELTAGKILIDNVDISQLGLFDLRRKLAIIPQDPVLFRGTIRKNLDPFNERTDDELWDALVRGGAIAKDDLPEVKLQKPDENGTHGKMHKFHLDQAVEEEGSNFSLGERQLLALTRALVRQSKILILDEATSSVDYETDGKIQTRIVEEFGDCTILCIAHRLKTIVNYDRILVLEKGEVAEFDTPWTLFSQEDSIFRSMCSRSGIVENDFENRS
- resistance to FB1 conferred by the expressed gene (YTKT33 [4]): weak resistance
